Data from patent US8673976B2, “Medicament for prophylactic and/or therapeutic treatment of hepatic steatosis or non-alcoholic steatohepatitis” (Kowa Company, Ltd., priority 2007, dated 2014).

Assays:
rats = settings: literature; cited from earlier work
C57BL/6N mice = assay: Evaluation of NIK-333 and ATRA for toxicity in mice (Example 2); assay type: in vivo, mouse; settings: oral once per day for 2 weeks, versus soybean oil control
Protocol: 7-Week old C57BL/6N mice (Charles River Japan) were given with MK-333 or ATRA once per day for 2 weeks by forcible continuous oral administration. After completion of the test, S-TG concentrations and testis weights of individual mice were measured. To the control group, soybean oil was administered.

mice = settings: literature; cited from earlier work
[1] = system: SD male rats on high fat diet (HFD32); assay: Action of NIK-333 for decreasing hepatic lipid amount in high fat diet rats (Example 1); assay type: in vivo, rat; settings: oral once a day for 8 weeks, serum
From the text: For the experiment, 6-week old SD male rats (Charles River Japan) were used. HFD32 (Clea Japan) was used for the high fat diet group, and CE-2 (Clea Japan) was used for the normal control group. The feeding was restricted to 25±3 g for both of the groups. Administration of NIK-333 was started at the same time as the start of the loading of the high fat diet, and the drug was given once a day for 8 weeks by forcible continuous oral administration. After completion of the test, each liver was extracted, and triglyceride (H-TG) amount and cholesterol (H-T-chol) amount in the liver were measured. Hematoxylin-eosin (H.E.) and Oil Red O (O.R.) staining samples were prepared from the extracted liver, and histopathological examination was performed. Degree of fatty degeneration of the liver was graded into five categories on the basis of the examination of the H.E. staining sample, and scores were assigned. Further, from the O.R. staining sample, O.R. positive area in the liver sample area was calculated by using an image analyzer. Furthermore, triglyceride (S-TG), total cholesterol (S-T-chol), alanine aminotransferase (S-ALT), and aspartate aminotransferase (S-AST) levels in serum were measured.

recurrence of hepatoma = settings: clinical, during the administration; cited from earlier work

| Compound | testis weight (rats) | S-TG concentration (FIG. 5) (C57BL/6N mice) | testis weight (FIG. 6) (C57BL/6N mice) | testis weight (mice) | lipid concentration in blood (S-TG, S-T-chol; FIG. 3) [1] | liver function failure or other adverse effects caused by retinoids (recurrence of hepatoma) |
| --- | --- | --- | --- | --- | --- | --- |
| CC1=C(/C=C/C(C)=C/C=C/C(C)=C/C(=O)O)C(C)(C)CCC1 [ATRA, all-trans-retinoic acid] | decreased testis weight | increases the S-TG concentration | markedly decreases testis weight | decreased testis weight | – | – |
| CC(C)=CCC/C(C)=C/CC/C(C)=C/C=C/C(C)=C/C(=O)O [NIK-333, (2E,4E,6E,10E)-3,7,11,15-tetramethyl-2,4,6,10,14-hexadecapentaenoic acid] | – | does not affect the concentration | does not affect the weight | – | without affecting lipid concentration in blood | not substantially observed |
